Tested on: Metabolism protein genes
Assay: DNA chip mRNA expression in yeast, metabolism protein genes (Table 7)
Type: cell-based, Saccharomyces cerevisiae S288C
Procedure: Yeast (Saccharomyces cerevisiae S288C (α SUC2mal mel gap2 CUP1)) were incubated at 25° C. on YPD medium (yeast extract 1%, polypepton 2%, glucose 2%). One of toxic chemical substances was added to the cells at logarithmic growth phase, and the cells were further incubated for two hours. Cells were cultured without any chemical substance in the same condition, and were used as control. Concentrations of the chemical substances were defined to inhibit the growth of the yeast but not lead to death.
After completion of the incubation, the culture was centrifuged to collect the cells. To the cells, sodium acetate buffer (50 mM sodium acetate, 10 mM EDTA, 1% SDS) was added, and the mixture was shaken at 65° C. for five minutes, followed by returning to room temperature, and obtaining the supernatant, of which the procedures were repeated two times. To the supernatant, ½ amount of a solution of phenol/chloroform was added, and the mixture was centrifuged to give a supernatant, which was added with an equal amount of chloroform, and the mixture was centrifuged to give a supernatant. To the supernatant, an equal amount of isopropanol containing 0.3 M sodium acetate was added, and the mixture was allowed to stand at room temperature for 30 minutes, after which the mixture was centrifuged to give a sediment of the whole RNAs. Seventy % ethanol was added to the sediment, and the mixture was again centrifuged to give a sediment, which was then dried and dissolved in water. mRNA was isolated from the whole RNAs as followings. In view of the fact that a poly A chain is attached to the 3′ terminus of mRNA, a polynucleotide having a poly T structure which was immobilized on the surface of latex beads was used to trap the mRNA, and then the mRNA was washed and eluted with spine column (Oligotex-dT30<Super>mRNA Purification Kit, Takara). Reverse transcription of the mRNA was conducted with a reverse transcriptase (Super Script II Reverse Transcriptase; catalogue No. 18064-014, GibcoBRL) using fluorescence-labeled nucleotides to give cDNAs that were introduced with Cy3-dUTP or Cy5-dUTP during the reverse transcription.
The labeled cDNAs were dissolved in TE buffer (10mM Tris-HCl/1 mM EDTA, pH8.0), and the solution was dropped on the DNA chip containing the whole genes of yeast (DNA Chip Research Inc. Japan) so that the cDNAs were hybridized on the DNA chip at 65° C. for over 12 hours. The fluoresces intensity of the DNA chip was read with a scanner, and the ratio relative to the fluorescence intensity resulting from the absence of chemical substance was estimated as the following, which is shown in Tables 1 to 9: […]

In the case of `CCCCCCCCCCCCc1ccc(S(=O)(=O)[O-])cc1.[Na+]` [(17), sodium dodecylbenzosulfonate], the “The level of expressed mRNA in the presence of chemical substance/The level of expressed mRNA in the absence of chemical substance” value (yeast gene YFL057C) is reported as 1.6, the “The level of expressed mRNA in the presence of chemical substance/The level of expressed mRNA in the absence of chemical substance” value (yeast gene YFR047C) is reported as 1.5 and the “level of expressed mRNA in the presence/in the absence of chemical substance” value (yeast gene YGL012W) is reported as 0.9. The “The level of expressed mRNA in the presence of chemical substance/The level of expressed mRNA in the absence of chemical substance” value (yeast gene YGL022W) was 0.9, the “level of expressed mRNA in the presence/in the absence of chemical substance” value (yeast gene YGL115W) was 0.8 and the “The level of expressed mRNA in the presence of chemical substance/The level of expressed mRNA in the absence of chemical substance” value (yeast gene YGL126W) was 0.9. The “level of expressed mRNA in the presence/in the absence of chemical substance” value (yeast gene YGL205W) was 3.9, the “The level of expressed mRNA in the presence of chemical substance/The level of expressed mRNA in the absence of chemical substance” value (yeast gene YGL209W) was 1.1 and the “The level of expressed mRNA in the presence of chemical substance/The level of expressed mRNA in the absence of chemical substance” value (yeast gene YGL248W) was 1.1. For the same compound, the “The level of expressed mRNA in the presence of chemical substance/The level of expressed mRNA in the absence of chemical substance” value (yeast gene YGR037C) was 1.4, the “The level of expressed mRNA in the presence of chemical substance/The level of expressed mRNA in the absence of chemical substance” value (yeast gene YGR055W) was 0.7 and the “level of expressed mRNA in the presence/in the absence of chemical substance” value (yeast gene YGR096W) was 0.8. For the same compound, the “level of expressed mRNA in the presence/in the absence of chemical substance” value (yeast gene YGR191W) was 0.8, the “The level of expressed mRNA in the presence of chemical substance/The level of expressed mRNA in the absence of chemical substance” value (yeast gene YGR194C) was 1.1 and the “level of expressed mRNA in the presence/in the absence of chemical substance” value (yeast gene YGR204W) was 1.0. For the same compound, the “The level of expressed mRNA in the presence of chemical substance/The level of expressed mRNA in the absence of chemical substance” value (yeast gene YGR256W) was 1.1, the “The level of expressed mRNA in the presence of chemical substance/The level of expressed mRNA in the absence of chemical substance” value (yeast gene YGR282C) was 1.1 and the “level of expressed mRNA in the presence/in the absence of chemical substance” value (yeast gene YGR288W) was 1.2. For the same compound, the “level of expressed mRNA in the presence/in the absence of chemical substance” value (yeast gene YHR025W) was 1.0, the “The level of expressed mRNA in the presence of chemical substance/The level of expressed mRNA in the absence of chemical substance” value (yeast gene YHR111W) was 1.1 and the “level of expressed mRNA in the presence/in the absence of chemical substance” value (yeast gene YHR123W) was 1.1. The “The level of expressed mRNA in the presence of chemical substance/The level of expressed mRNA in the absence of chemical substance” value (yeast gene YHR137W) was 0.8, the “The level of expressed mRNA in the presence of chemical substance/The level of expressed mRNA in the absence of chemical substance” value (yeast gene YHR174W) was 1.0 and the “The level of expressed mRNA in the presence of chemical substance/The level of expressed mRNA in the absence of chemical substance” value (yeast gene YHR176W) was 1.4. The “level of expressed mRNA in the presence/in the absence of chemical substance” value (yeast gene YHR210C) was 1.4, the “level of expressed mRNA in the presence/in the absence of chemical substance” value (yeast gene YIL006W) was 0.8 and the “The level of expressed mRNA in the presence of chemical substance/The level of expressed mRNA in the absence of chemical substance” value (yeast gene YIL045W) was 1.1. For the same compound, the “The level of expressed mRNA in the presence of chemical substance/The level of expressed mRNA in the absence of chemical substance” value (yeast gene YIL107C) was 1.2, the “The level of expressed mRNA in the presence of chemical substance/The level of expressed mRNA in the absence of chemical substance” value (yeast gene YIL154C) was 1.2 and the “The level of expressed mRNA in the presence of chemical substance/The level of expressed mRNA in the absence of chemical substance” value (yeast gene YIL155C) was 1.1. For the same compound, the “The level of expressed mRNA in the presence of chemical substance/The level of expressed mRNA in the absence of chemical substance” value (yeast gene YIR034C) was 1.0, the “The level of expressed mRNA in the presence of chemical substance/The level of expressed mRNA in the absence of chemical substance” value (yeast gene YIR036C) was 1.5 and the “The level of expressed mRNA in the presence of chemical substance/The level of expressed mRNA in the absence of chemical substance” value (yeast gene YJL031C) was 1.2. For the same compound, the “The level of expressed mRNA in the presence of chemical substance/The level of expressed mRNA in the absence of chemical substance” value (yeast gene YJL068C) was 1.4, the “The level of expressed mRNA in the presence of chemical substance/The level of expressed mRNA in the absence of chemical substance” value (yeast gene YJL088W) was 1.4 and the “The level of expressed mRNA in the presence of chemical substance/The level of expressed mRNA in the absence of chemical substance” value (yeast gene YJL099W) was 1.2. For the same compound, the “level of expressed mRNA in the presence/in the absence of chemical substance” value (yeast gene YJL121C) was 1.1, the “level of expressed mRNA in the presence/in the absence of chemical substance” value (yeast gene YJL167W) was 1.4 and the “The level of expressed mRNA in the presence of chemical substance/The level of expressed mRNA in the absence of chemical substance” value (yeast gene YJL172W) was 1.8. For the same compound, the “level of expressed mRNA in the presence/in the absence of chemical substance” value (yeast gene YJL216C) was 1.2, the “The level of expressed mRNA in the presence of chemical substance/The level of expressed mRNA in the absence of chemical substance” value (yeast gene YJL219W) was 1.6 and the “level of expressed mRNA in the presence/in the absence of chemical substance” value (yeast gene YJR077C) was 1.0. The “The level of expressed mRNA in the presence of chemical substance/The level of expressed mRNA in the absence of chemical substance” value (yeast gene YJR137C) was 0.9, the “level of expressed mRNA in the presence/in the absence of chemical substance” value (yeast gene YJR143C) was 0.7 and the “The level of expressed mRNA in the presence of chemical substance/The level of expressed mRNA in the absence of chemical substance” value (yeast gene YJR148W) was 1.3.
